Converted amounts (≈) assume the structure as drawn. The source made the active and inactive calls. No cut-off for these calls is given here.
Experiments:
Format in all cases: functional
[1] = system: Mycobacterium tuberculosis; experiment: Antimicrobial activity against isoniazid and rifampin resistant Mycobacterium tuberculosis after 21 days at 37 degC by agar dilution drug susceptibility assay
[2] = system: Mycobacterium tuberculosis; experiment: (§1) Antimicrobial activity against isoniazid and rifampin resistant Mycobacterium tuberculosis assessed as ratio of MIC combination/MIC compound alone after 21 days at 37 degC in presence of PA-824 by agar dilution drug susceptibility assay
[3] = system: Mycobacterium tuberculosis; experiment: (§2) Antimicrobial activity against isoniazid and rifampin resistant Mycobacterium tuberculosis after 21 days at 37 degC in presence of PA-824 by agar dilution drug susceptibility assay; settings: 504 h
[4] = system: Mycobacterium tuberculosis; experiment: (§3) Antimicrobial activity against isoniazid and rifampin resistant Mycobacterium tuberculosis assessed as reduction in colony forming unit after 21 days at 37 degC in presence of PA-824 by agar dilution drug susceptibility assay; design: scale not given: the % may be the effect or the level left
[5] = system: Mycobacterium tuberculosis; experiment: as §2, with “1-(4-(4-(1H-pyrrol-1-yl)phenyl)piperazin-1-yl)-4-(5-(3,5-difluorobenzyl)-1-(2-fluorobenzyl)-2-oxo-1,2-dihydropyridin-3-yl)-2-hydroxybut-2-ene-1,4-dione” for “PA-824”
[6] = system: Mycobacterium tuberculosis; experiment: as §1, with “1-(4-(4-(1H-pyrrol-1-yl)phenyl)piperazin-1-yl)-4-(5-(3,5-difluorobenzyl)-1-(2-fluorobenzyl)-2-oxo-1,2-dihydropyridin-3-yl)-2-hydroxybut-2-ene-1,4-dione” for “PA-824”
[7] = system: Mycobacterium tuberculosis; experiment: as §3, with “1-(4-(4-(1H-pyrrol-1-yl)phenyl)piperazin-1-yl)-4-(5-(3,5-difluorobenzyl)-1-(2-fluorobenzyl)-2-oxo-1,2-dihydropyridin-3-yl)-2-hydroxybut-2-ene-1,4-dione” for “PA-824”; design: scale not given: the % may be the effect or the level left

SMILES: O=C(/C=C(\O)C(=O)N1CCN(c2ccc(-n3cccc3)cc2)CC1)c1cc(Cc2ccccc2)cn(Cc2ccccc2)c1=O
- MIC ([1]; 504 h): 3.12 µg/mL (≈ 5.22 µM)

SMILES: O=C(/C=C(\O)C(=O)N1CCN(c2ccc(-n3cccn3)cc2)CC1)c1cc(Cc2cc(F)cc(F)c2)cn(Cc2ccccc2F)c1=O
- MIC ([1]; 504 h): 3.12 µg/mL (≈ 4.78 µM)

SMILES: O=C(/C=C(\O)C(=O)N1CCN(c2ccc(-n3cccc3)cc2)CC1)c1cc(Cc2cc(F)cc(F)c2)cn(Cc2ccccc2F)c1=O
- fractional inhibitory concentration index (FICI) [2]: 0.125
- MIC [3]: 0.195 µg/mL
- MIC ([1]; 504 h): 1.56 µg/mL (≈ 2.39 µM)
- Activity [4]: >99%

SMILES: CN[C@@H]1[C@H](O[C@H]2[C@H](O[C@H]3[C@H](O)[C@@H](O)[C@H](N=C(N)N)[C@@H](O)[C@@H]3N=C(N)N)O[C@@H](C)[C@]2(O)C=O)O[C@@H](CO)[C@H](O)[C@H]1O
- MIC [1]: Active

SMILES: O=C(/C=C(\O)C(=O)N1CCN(c2ccc(-n3ccnc3)cc2)CC1)c1cc(Cc2cc(F)cc(F)c2)cn(Cc2ccccc2F)c1=O
- MIC ([1]; 504 h): 6.25 µg/mL (≈ 9.56 µM)

SMILES: O=[N+]([O-])c1cn2c(n1)OC[C@@H](OCc1ccc(OC(F)(F)F)cc1)C2 [PRETOMANID]
- MIC [5]: 0.031 µg/mL
- MIC ([1]; 504 h): 0.126 µg/mL (≈ 0.351 µM)
- fractional inhibitory concentration index (FICI) [6]: 0.246
- Activity [7]: >99%

Source: ChEMBL document CHEMBL3397011, “A novel molecule with notable activity against multi-drug resistant tuberculosis” (Bioorg Med Chem Lett, 2015)
